Tested on: rumen liquor
Assay: In vitro test for methane production, modified Hohenheim Forage value Test (HFT)
Type: cell-based
Conditions: TMR feed, 8 hours at 39° C., average of four to eight experiments
Protocol: In vitro test for methane production: A modified version of the “Hohenheim Forage value Test (HFT)” was used for testing the effect of specific compounds on the rumen functions mimicked by this in-vitro system.
Principle: Feed is gadded into a syringe with a composition of rumen liquor and an appropriate mixture of buffers. The solution is incubated at 39° C. After 8 hours the quantity (and composition) of gas phase produced is measured and put into a formula for conversion.
Sample weighing: The feed stuff (i.e. TMR (44% concentrate, 6% hay, 37% maize silage and 13% grass silage) is sieved to 1 mm and weighed exactly into 64 syringes. 4 of these syringes are the substrate controls, which display the gas production without the effect of the tested compounds. 4 other syringes are positive control (3-NOP, […]). When needed, 4 syringes contain a carrier control (if the test compounds need a carrier). The remaining syringes contain the test substances, by groups of 4 syringes, in the amounts as indicated in table 1.
• The components are mixed in a Woulff bottle in following order: • 711 ml water • 0.18 ml trace element solution • 355.5 ml buffer solution • 355.5 ml mass element solution • The completed solution is warmed up to 39° C. followed by the addition of 1.83 ml sodium salt solution and the addition of reduction solution at 36° C. • The rumen liquor is added, when the indicator turns colourless.
Extraction of the rumen liquor: 750 ml of rumen liquor are added to approximately 1,400 ml of medium solution under continued agitation and CO2-gassing.
Filling the syringes, incubation and determining gas volumes and VFA values: The diluted rumen fluid (24 ml) is added to the glass syringe. The syringes are then incubated for 8 hours at 39° C. under gentle agitation. After 8 hours, the volume of gas produced is measured, and the percentage of methane in the gas phase is determined by gas chromatography.
The food fermented was artificial TMR (44% concentrate, 6% hay, 37% maize silage and 13% grass silage). […]

| SMILES | Total methane change [% vs. control], found (DL 100 μM) [% vs. control] | Total methane change [% vs. control], found (PDMN 5 μM) [% vs. control] | Total methane change [% vs. control], found (PDMN 10 μM) [% vs. control] |
| --- | --- | --- | --- |
| C=C(C)C1CC=C(C)CC1 [DL, D-Limonene] | −1 | – | – |
| O=[N+]([O-])OCCCO [PDMN, Propanediol mononitrate] | – | −27 | −98 |

Reference: patent US20240207200A1, “USE OF PROPANDIOL MONONITRATE AND LIMONENE FOR REDUCING THE FORMATION OF METHANE EMANATING AND FOR IMPROVING THE DIGESTIBILITY” (DSM IP Assets B.V., priority 2021, published 2024)
